Patent publication US20210052632A1, “SELECTIVE PARP1 INHIBITORS TO TREAT CANCER” (Cambridge Enterprise Limited, priority 2018, published 2021)
Read-outs that look alike come from different tables or passages of the source.

Tests used:
[1] = target: T1, human full length active PARP2 (Homo sapiens, UniProt Q9UGN5); test: PARP inhibitor assay, fluorescence-based, PARP2; format: biochemical
T1 construct: human full length active PARP1 (CS207770, Merck), PARP2 (ab198766, Abeam); purchased Abcam ab198766
From the text: (§1) The PARP inhibitor assay is a direct fluorescence-based concentration measurement of reaction product formation. The assay reagents are sold as a commercial kit (see http://www.merckmillipore.com/GB/en/product/PARP1-Enzyme-Activity-Assay,MM_NF-17-10149). To measure PARP inhibition, the NAD+ substrate concentration should be set at Km (the Michaelis constant) to enable identifications of all types of inhibitors (competitive, uncompetitive and non-competitive (allosteric) (the latter represents a mode of action of Zn-finger inhibitors)), direct calculation of inhibitor potency (Ki) and in vivo modelling. (See in and literature sited therein: Michael G. Acker, Douglas S. Auld. Considerations for the design and reporting of enzyme assays in high-throughput screening applications. Perspectives in Science (2014) 1, 56-73).
(§2) PARP activity and inhibition was measured for human full length active PARP1 (CS207770, Merck), PARP2 (ab198766, Abeam) and PARP3 (ab79638, Abeam) proteins. Inhibitor compounds (Sodium Aurothiomalate and Aurothioglucose, Sigma-Aldrich and Auranofin, Bio-Techne) at different concentrations (1, 10 and 100 nM, 1, 10 and 100 μM final) were added to the reaction buffer, concocted as a 1:1 mixture of Merck kit buffer with 50 mM Tris-HCl, 100 mM NaCl, 5 mM MgCl2, 0.05% Tween-20, pH 8.0, Sigma), and incubated with PARP1 (2.5 ng/μL final), PARP2 (2.2 ng/μL final) or PARP3 (55 ng/μL final) at room temperature for 30 min.
(§3) Further, activated DNA (2 ng/μL final), […] (60 and 400 μM final for PARP1/2 and PARP3, respectively) and Nicotinamidase (200 ng/μL final) were added and incubated at 37° C. for 45 min. Total reaction volume was 25 μL.
(§4) Controls were executed as follows: • 1. Control of 0% inhibition contained reaction sample without inhibitor; • 2. Control of 100% inhibition of PARP1/2/3 activity contained reaction sample without β-NAD; and • 3. Control of 100% inhibition of DNA-dependent activity contained reaction sample without DNA.
(§5) After the plates were cooled down to room temperature, 25 μL of Merck proprietary reagent was added to the reaction mixture and incubated at mild shaking for 45 min. Fluorescence measurement was carried out at excitation wavelength of 410 nm and emission of 460 nm in Fluostar Omega microplate reader (BMG Labtech).
(§6) Total PARP1/2/3 activity was calculated as a difference between control (1) and control (2). DNA-independent activity was calculated as a difference between control (1) and control (3). DNA-dependent activity was calculated as the difference between the total PARP1/2/3 activity and DNA-independent activity. […] However, potentially up to 30% of PARP1 activity can be DNA-independent.
(§7) Inhibitory values were converted into percentages according to controls. Controls (1) and (3) were used in the case of PARP1, because only inhibition of DNA-dependent activity was observed, and the results are shown in FIG. 2. Controls (1) and (2) were used in the case of PARP2/3, because inhibition of total PARP2/3 activity (both DNA-dependent and DNA-independent reactions) was observed. FIGS. 3 and 4 show the percentage inhibition of PARP1 and PARP2 for different concentrations of aurothiomalate and aurothioglucose, respectively.

[2] = target: T2, human full length active PARP1 (Homo sapiens, UniProt P09874); test: PARP inhibitor assay, fluorescence-based (PARP1 Enzyme Activity Assay kit), PARP1; format: biochemical
T2 construct: human full length active PARP1 (CS207770, Merck); purchased Merck CS207770
From the text: as §1, §2, §3, §4, §5, §6, §7

[3] = target: T3, human full length active PARP3 (Homo sapiens, UniProt Q9Y6F1); test: PARP inhibitor assay, fluorescence-based, PARP3; format: biochemical; conditions: for IC50: inhibition of total PARP3 activity (controls 1 and 2), 400 μM β-NAD
T3 construct: human full length active PARP1 (CS207770, Merck), PARP2 (ab198766, Abeam) and PARP3 (ab79638, Abeam) proteins; purchased Abcam ab79638
T3 sequence (Q9Y6F1 1-533): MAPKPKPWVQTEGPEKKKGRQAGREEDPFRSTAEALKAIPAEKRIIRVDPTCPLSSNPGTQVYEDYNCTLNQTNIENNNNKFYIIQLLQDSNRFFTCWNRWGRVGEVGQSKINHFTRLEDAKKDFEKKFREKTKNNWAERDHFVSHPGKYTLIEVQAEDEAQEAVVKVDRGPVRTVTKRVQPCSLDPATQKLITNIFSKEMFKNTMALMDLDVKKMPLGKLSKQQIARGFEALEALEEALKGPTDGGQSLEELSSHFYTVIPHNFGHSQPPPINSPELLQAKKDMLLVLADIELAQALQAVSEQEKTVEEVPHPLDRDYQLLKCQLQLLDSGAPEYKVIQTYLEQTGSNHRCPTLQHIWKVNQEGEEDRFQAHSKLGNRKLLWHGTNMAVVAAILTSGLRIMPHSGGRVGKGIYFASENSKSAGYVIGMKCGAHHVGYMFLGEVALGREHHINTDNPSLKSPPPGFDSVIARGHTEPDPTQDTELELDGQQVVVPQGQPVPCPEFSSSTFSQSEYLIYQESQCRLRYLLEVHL
From the text: as §1, §2, §3, §4, §5, §6
Inhibitory values were converted into percentages according to controls. […]

[4] = system: rats fed a high adenine/low protein diet (chronic kidney disease); test: Bone density in rat model on high adenine/low protein diet (CKD), SEM/TEM of long limb bone cross sections; format: in vivo; conditions: 50 mg/kg/day for 6 weeks; cortical area of long limb bone cross section; vs control and untreated CKD-diet rats; FIG. 8b
Procedure: The effects of minocycline on bone calcification processes were evaluated in an in vivo rat model. The rats were fed a high adenine/low protein diet in order to develop chronic kidney disease (CKD) and associated hyperphosphatemia and medial vascular calcification. It is also expected to cause increased rates of bone turnover, allowing the inventors to examine whether inhibition of PARP2 enzymatic activity during bone remodelling affected mineralization. 14 of the rats on the high adenine/low protein diet were treated with 50 mg/kg/day of minocycline for 6 weeks. At the end of the study period cross sections of the long limb bone were analysed using scanning electron microscopy (SEM) and transmission electron microscopy (TEM), see FIG. 7, and the area fraction of solid bone in the cortical area of the bone cross section was quantified from these images, see FIG. 8. Statistical significance was determined by Mann-Whitney test.

[5] = inhibition of total PARP2 activity (controls 1 and 2), 60 μM β-NAD, read-out: IC50 PARP2
[6] = inhibition of DNA-dependent activity (controls 1 and 3), 60 μM β-NAD, activated DNA, read-out: IC50 PARP1

T1 sequence (Q9UGN5 whole entry): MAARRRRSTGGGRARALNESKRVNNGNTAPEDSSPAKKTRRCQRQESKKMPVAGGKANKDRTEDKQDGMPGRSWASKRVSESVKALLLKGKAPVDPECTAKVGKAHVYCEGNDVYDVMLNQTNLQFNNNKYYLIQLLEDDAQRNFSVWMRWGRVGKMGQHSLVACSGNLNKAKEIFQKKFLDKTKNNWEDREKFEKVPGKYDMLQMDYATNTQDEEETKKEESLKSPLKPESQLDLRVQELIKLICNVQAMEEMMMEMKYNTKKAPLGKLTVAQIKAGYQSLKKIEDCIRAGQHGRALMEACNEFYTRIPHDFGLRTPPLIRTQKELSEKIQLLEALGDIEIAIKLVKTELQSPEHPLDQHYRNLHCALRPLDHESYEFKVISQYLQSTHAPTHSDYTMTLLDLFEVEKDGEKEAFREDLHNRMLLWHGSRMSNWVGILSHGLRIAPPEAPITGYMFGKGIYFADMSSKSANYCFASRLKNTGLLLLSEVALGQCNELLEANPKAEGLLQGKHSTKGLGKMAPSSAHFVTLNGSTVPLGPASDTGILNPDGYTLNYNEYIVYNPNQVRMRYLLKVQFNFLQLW
T2 sequence (P09874 whole entry): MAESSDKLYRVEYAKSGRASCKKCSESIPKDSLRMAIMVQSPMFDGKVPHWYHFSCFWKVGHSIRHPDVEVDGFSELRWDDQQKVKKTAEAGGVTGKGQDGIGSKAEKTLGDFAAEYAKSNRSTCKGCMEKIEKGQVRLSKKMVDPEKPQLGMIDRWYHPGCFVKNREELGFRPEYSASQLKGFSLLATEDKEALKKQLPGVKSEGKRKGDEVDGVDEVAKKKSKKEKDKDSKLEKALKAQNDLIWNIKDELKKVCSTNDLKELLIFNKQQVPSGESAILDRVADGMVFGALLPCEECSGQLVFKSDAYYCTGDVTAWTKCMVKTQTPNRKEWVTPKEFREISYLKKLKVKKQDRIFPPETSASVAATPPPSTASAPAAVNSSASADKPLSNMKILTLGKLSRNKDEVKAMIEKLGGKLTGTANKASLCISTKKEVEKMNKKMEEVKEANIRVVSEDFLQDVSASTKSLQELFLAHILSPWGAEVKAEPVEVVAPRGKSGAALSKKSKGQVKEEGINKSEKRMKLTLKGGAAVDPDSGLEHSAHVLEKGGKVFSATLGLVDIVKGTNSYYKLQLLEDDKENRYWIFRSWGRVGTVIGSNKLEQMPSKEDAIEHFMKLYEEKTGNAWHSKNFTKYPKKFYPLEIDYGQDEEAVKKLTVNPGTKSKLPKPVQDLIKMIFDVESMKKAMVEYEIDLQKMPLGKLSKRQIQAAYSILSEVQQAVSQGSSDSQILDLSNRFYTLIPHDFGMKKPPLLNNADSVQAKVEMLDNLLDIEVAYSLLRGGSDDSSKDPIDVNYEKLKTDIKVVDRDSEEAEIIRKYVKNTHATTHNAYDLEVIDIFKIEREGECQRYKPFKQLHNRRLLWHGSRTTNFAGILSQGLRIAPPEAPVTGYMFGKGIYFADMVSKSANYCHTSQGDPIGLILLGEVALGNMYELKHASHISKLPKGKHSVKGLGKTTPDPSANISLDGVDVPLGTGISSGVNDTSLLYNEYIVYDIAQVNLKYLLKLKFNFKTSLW

Row | Compound | PARP2 inhibition (in words) [1] | IC50 [1, 5] [nM] | PARP1 inhibition (in words) ([2]; FIG. 2 and Table 1) | IC50 [2, 6] [nM] | PARP3 inhibition (in words) [3] | IC50 [3] [nM] | DNA-independent PARP1 activity in the presence of the compound [2] | IC50 [2] [nM] | reduction in the area fraction of solid bone [4] [%] | IC50 [1] [nM] | PARP2 vs PARP1 selectivity factor ([1]; ratio of PARP1 and PARP2 IC50) | IC50 ([2]; assay of Example 1, FIG. 6, read-out: IC50 PARP1) [nM]
1 | CC(=O)OC[C@H]1O[C@@H]([S-])[C@H](OC(C)=O)[C@@H](OC(C)=O)[C@@H]1OC(C)=O.CCP(CC)CC.[Au+] [Auranofin] | only inhibits PARP1 and PARP2 at very high concentrations | 1160 ± 81 | only inhibits PARP1 and PARP2 at very high concentrations | 1400 ± 98 |  |  |  |  |  |  |  | 
2 | OC[C@H]1OC([S][Au])[C@H](O)[C@@H](O)[C@@H]1O (some centres unmarked) [Aurothioglucose] | not inhibited | 4450 ± 623 |  |  | not inhibited | 1140 ± 20 | maintained | 120 ± 7 |  |  |  | 
3 | CN(C)c1ccc(O)c2c1C[C@H]1C[C@H]3[C@H](N(C)C)C(O)=C(C(N)=O)C(=O)[C@@]3(O)C(O)=C1C2=O [minocycline] |  |  |  |  |  |  |  |  | 25 | 2800 | greater than 70 × | 204000
4 | Sodium Aurothiomalate | not inhibited | 1190 ± 190 |  | 48 ± 7 | not inhibited | 1160 ± 93 | maintained |  |  |  |  | 
